One test addresses T1, FKBP F36I (Homo sapiens, UniProt P62942, F37I).
T1 construct: made in house
As to the kind of experiment: Competitive Binding FP Assay, F36I mutant FKBP.

A further test concerns the target T2, FKBP F36A (Homo sapiens, UniProt P62942, F37A).
T2 construct: made in house
Description: Competitive Binding FP Assay, F36A mutant FKBP.

The target of a further test is T3, FKBP F36M (Homo sapiens, UniProt P62942, F37M).
T3 construct: made in house
As to the kind of experiment: Competitive Binding FP Assay, F36M mutant FKBP.

A further test concerns the target T4, FKBP F36S (Homo sapiens, UniProt P62942, F37S).
T4 construct: made in house
As to the kind of experiment: Competitive Binding FP Assay, F36S mutant FKBP. Conditions: Synthetic Monomers table; normalized to FK506 run in the same experiment.

A further test deals with FKBP F36L (Homo sapiens, UniProt P62942, F37L). As to the kind of experiment: Competitive Binding FP Assay, F36L mutant FKBP.
In test [1] the target is T5, wild-type human FKBP12 (Homo sapiens, UniProt P62942).
Description: (§1) Affinities of bumped synthetic ligands for FKBP were determined using a competitive assay based on fluorescence polarization (FP). […] The assay yields IC50 values that are related to the affinity of the competitive ligand for the protein.
(§2) For competition FP assays, the appropriate protein concentration (giving ˜90% binding of probe) was first determined by direct binding of probe to protein (see eg. Beacon FP System Applications Guide, Panvera Corp, Madison, Wis.). All binding assay procedures were performed at room temperature. Serial dilutions of each protein were prepared in 50 mM potassium phosphate pH 7.8/150 mM NaCl/100 μg/ml bovine gamma globulin (“FP buffer”: prepared using only low-fluorescence reagents from Panvera), and 100 μl volumes transferred to wells of a Dynatech micro-fluor black 96-well fluorescence plate. 100 μl of 10 nM 4 in FP buffer plus 2% ethanol (prepared from an ethanol stock of the probe) was then added to each well with mixing. Duplicate control wells contained FP buffer instead of FKBP (for 0% probe binding) or 10 μM wild-type FKBP (for 100% binding).
(§3) The plates were stored covered in the dark for approximately 30 min to permit equilibration and then the fluorescence polarization of the sample in each well was read on a Jolley FPM-2 FP plate reader (Jolley Consulting and Research, Inc., Grayslake, Ill.) in accordance with the manufacturer's recommendations. Polarization (mP units) for each protein concentration was plotted (y axis) vs. final concentration of FKBP (x axis). Concentrations were determined by OD280 measurements. Arbitrary units were used for non-quantitated proteins. Non-linear least square analysis was used to fit the curve and extract the Kd of the protein for the probe (in cases where the protein concentration was known) using the following four-parameter equation: y=M3+(((x+M1+M2)−SQRT(((x+M1+M2)^2)−(4*x*M1)))/(2*(M1)))*(M4−M3) where M1 is the probe concentration, M2 the Kd, and M3 and M4 the minimum and maximum mP values respectively.
(§4) Serial 10-fold dilutions of each synthetic ligand were prepared in 100% ethanol in glass vials and stored on ice. All other manipulations were performed at room temperature. […] Finally, a probe solution was prepared containing 10 nM 4 in 0.1% ethanol/FP buffer, and 100 μl added to each well with mixing. […]
(§5) The plates were stored covered in the dark for approximately 30 min to permit equilibration and then the fluorescence polarization of the sample in each well read on a Jolley FPM-2 FP plate reader (Jolley Consulting and Research, Inc., Grayslake, Ill.) in accordance with the manufacturer's recommendations. […] For incomplete curves the IC50 was determined by interpolation.
In test [2] the target is T5, wild-type human FKBP12. As to the kind of experiment: Competitive Binding FP Assay, wild-type FKBP. Conditions: for wild-type, % @ 100000: Synthetic Monomers table, @ 100000 nM competitor.
Description: as §1, §2, §3, §4, §5
Another test has as its target FKBP F36V (Homo sapiens, UniProt P62942, F37V). As to the kind of experiment: Competitive Binding FP Assay, F36V mutant FKBP.
For test [3], the target named is T6, FAS-FKBP fusion (36V FKBP) in HT1080 cells (Homo sapiens, UniProt P62942, F37V).
T6 construct: fused on or other part: Fas intracellular effector domain (gives the death read-out)
As to the kind of experiment: Apoptosis Assay: Fas killing (36V, stable). It is filed as cell-based. Conditions: mean values.
Description: In this case, one uses cells which constitutively express a detectable product. The cells also contain and are capable of expressing DNAs encoding chimeric proteins comprising one or more immunophilin-derived ligand binding domains and one or more effector domains, such as the intracellular domain of FAS, capable, upon multimerization, of triggering cell death. […] The cells are maintained or cultured in a culture medium permitting cell growth or continued viability. The cells or medium are assayed for the presence of the constitutive cellular product, and a base-line level of reporter is thus established. One may use cells engineered for constitutive production of hGH or any other conveniently detectable product to serve as the reporter. […]
The ability of a dimerizer to activate the Fas signal transduction pathway and trigger cell death in cells engineered to express a FAS-FKBP fusion can be tested in cells appropriately transduced by retroviral vectors to express the desired fusion protein. […] The next day, medium is removed and replaced with medium containing 10% Alamar Blue viability indicator, which changes absorbance properties as a function of reducing agent released into the medium by cell metabolism. Alternatively, cells are counted. Optical density at the appropriate wavelength is measured using a platereader spectroscope.

The mark [4] stands for this setting: Synthetic Monomers table, normalized to FK506 run in the same experiment.

Counter-ions that a name gives are not always drawn. Like-named read-outs stand apart in the source and are kept apart here.

T2 sequence (P62942 whole entry F37A): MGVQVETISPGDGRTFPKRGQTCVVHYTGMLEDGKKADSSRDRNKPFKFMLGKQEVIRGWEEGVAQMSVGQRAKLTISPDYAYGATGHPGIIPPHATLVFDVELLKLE
T1 sequence (P62942 whole entry F37I): as the sequence (P62942 whole entry F37A) above, with A37I counted along it
T5 sequence (P62942 whole entry): as the sequence (P62942 whole entry F37A) above, with A37F counted along it
T3 sequence (P62942 whole entry F37M): as the sequence (P62942 whole entry F37A) above, with A37M counted along it
Sequence of FKBP F36L (P62942 whole entry F37L): as the sequence (P62942 whole entry F37A) above, with A37L counted along it
Sequence of FKBP F36V (P62942 whole entry F37V, the tested form may be a part): as the sequence (P62942 whole entry F37A) above, with A37V counted along it
T4 sequence (P62942 whole entry F37S): as the sequence (P62942 whole entry F37A) above, with A37S counted along it
T6 sequence (P62942 2-108 F37V limits assumed): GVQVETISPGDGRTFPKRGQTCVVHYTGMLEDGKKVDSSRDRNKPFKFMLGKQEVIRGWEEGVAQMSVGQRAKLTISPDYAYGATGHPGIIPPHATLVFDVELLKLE
Description for FKBP F36A: as §1, §2, §3
(§6) Serial 10-fold dilutions of each synthetic ligand were prepared in 100% ethanol in glass vials and stored on ice. All other manipulations were performed at room temperature. […] 2.0 μl samples of the synthetic ligands were then transferred in duplicate to the wells with mixing. Finally, a probe solution was prepared containing 10 nM 4 in 0.1% ethanol/FP buffer, and 100 μl added to each well with mixing. Duplicate control wells contained ethanol instead of FKBP ligand (for 100% probe binding) or ethanol instead of FKBP ligand and FP buffer instead of FKBP (0% binding).
(§7) The plates were stored covered in the dark for approximately 30 min to permit equilibration and then the fluorescence polarization of the sample in each well read on a Jolley FPM-2 FP plate reader (Jolley Consulting and Research, Inc., Grayslake, Ill.) in accordance with the manufacturer's recommendations. The mean polarization (mP units) for each competitor concentration, in some cases converted to % total binding by reference to the control values, was plotted (y axis) vs. log molar final concentration of competitor (x axis). Non-linear least square analysis was used to fit the curve and extract the IC50 using the following equation: y=M1+(M4−M1)/(1+exp(M2*(M3−x))) where M3 is the IC50. For incomplete curves the IC50 was determined by interpolation.
Description for FKBP F36I: as §1, §2, §3, §6, §7
Description for FKBP F36L: as §1, §2
The plates were stored covered in the dark for approximately 30 min to permit equilibration and then the fluorescence polarization of the sample in each well was read on a Jolley FPM-2 FP plate reader (Jolley Consulting and Research, Inc., Grayslake, Ill.) in accordance with the manufacturer's recommendations. Polarization (mP units) for each protein concentration was plotted (y axis) vs. final concentration of FKBP (x axis). Concentrations were determined by OD280 measurements. Arbitrary units were used for non-quantitated proteins. […]
as §5
Description for FKBP F36M: as §1, §2, §3, §6, §7
Description for FKBP F36S: as §1
(§8) For competition FP assays, the appropriate protein concentration (giving ˜90% binding of probe) was first determined by direct binding of probe to protein (see eg. Beacon FP System Applications Guide, Panvera Corp, Madison, Wis.). All binding assay procedures were performed at room temperature. Serial dilutions of each protein were prepared in 50 mM potassium phosphate pH 7.8/150 mM NaCl/100 μg/ml bovine gamma globulin (“FP buffer”: prepared using only low-fluorescence reagents from Panvera), and 100 μl volumes transferred to wells of a Dynatech micro-fluor black 96-well fluorescence plate. 100 μl of 10 nM 4 in FP buffer plus 2% ethanol (prepared from an ethanol stock of the probe) was then added to each well with mixing. […]
(§9) The plates were stored covered in the dark for approximately 30 min to permit equilibration and then the fluorescence polarization of the sample in each well was read on a Jolley FPM-2 FP plate reader (Jolley Consulting and Research, Inc., Grayslake, Ill.) in accordance with the manufacturer's recommendations. […] Concentrations were determined by OD280 measurements. Arbitrary units were used for non-quantitated proteins. […]
Description for FKBP F36V: as §1, §8, §9

Consider `COc1ccc(CCC(OC(=O)C2CCCCN2C(=O)C(c2ccccc2)C2CCCC2)c2cccc(OCC(=O)O)c2)cc1OC` (mixture of isomers) [AP1778], for which the figures for the half-inhibitory concentration (IC50) at FKBP F36I (setting [4]) and at FKBP F36A (setting [4]) were 41 nM and 75 nM, respectively.

Regarding `COc1ccc(CCC(OC(=O)C2CCCCN2C(=O)C(c2ccccc2)C(C)C)c2cccc(OCC(=O)O)c2)cc1OC` (mixture of isomers) [AP1781], the IC50 (usually the concentration that gives 50% inhibition) turned out to be 36 nM on FKBP F36I (setting [4]), 55 nM at FKBP F36M (setting [4]) and 109 nM at FKBP F36A (setting [4]).

Consider `COc1ccc(CCC(OC(=O)C2CCCCN2C(=O)C(Cc2ccccc2)c2ccccc2)c2cccc(OCC(=O)O)c2)cc1OC` (mixture of isomers) [AP1831], for which the 50% inhibitory concentration (IC50) at FKBP F36I (setting [4]) was 124 nM; on FKBP F36M (setting [4]), 169 nM; on FKBP F36A (setting [4]) it was 447 nM.

Regarding `CCC(C)(C)C(=O)C(=O)N1CCCC[C@H]1C(=O)O[C@H](CCc1ccc(OC)c(OC)c1)c1cccc(OCC(=O)O)c1` [AP1497], the concentration for half-maximal inhibition (IC50) on FKBP F36I (setting [4]) came to 43 nM; at FKBP F36A (setting [4]), 174 nM; at FKBP F36S, 1820 nM.

Take `COc1ccc(CC[C@@H](OC(=O)[C@@H]2CCCCN2C(=O)Cc2ccccc2)c2cccc(OCC(=O)O)c2)cc1OC` [AP1780]: on FKBP F36L (read-out: F36L IC50, Synthetic Monomers table, normalized to FK506 run in the same experiment), the IC50 worked out at 3560 nM.

With `CCC(C(=O)N1CCCC[C@H]1C(=O)O[C@H](CCc1ccc(OC)c(OC)c1)c1cccc(OCC(=O)O)c1)c1ccc2c(c1)OCO2` (stereo partly drawn) [AP1839], the IC50 against wild-type human FKBP12 [1] is > 16900 nM.

`CC[C@H](C(=O)N1CCCC[C@H]1C(=O)O[C@H](CCc1ccc(OC)c(OC)c1)c1cccc(OCC(=O)O)c1)c1cc(OC)c(OC)c(OC)c1` [AP1867]: the IC50 on FKBP F36I came out at 5.1 nM; at FKBP F36M, 10 nM; at FKBP F36A it was 18 nM; at wild-type human FKBP12 [2], 2930 nM; on FKBP F36V, 1.8 nM; at FKBP F36L, 6.2 nM.

For the molecule `COc1ccc(CC[C@@H](OC(=O)[C@@H]2CCCCN2C(=O)C(c2ccccc2)c2ccccc2)c2cccc(OCC(=O)O)c2)cc1OC` [AP14245], at wild-type human FKBP12 [2], the “wild-type, % @ 100000” value was 73% @ 100000.

For `CC[C@H](C(=O)N1CCCC[C@H]1C(=O)O[C@H](CCN1CCOCC1)c1cccc(OCC(=O)O)c1)c1cc(OC)c(OC)c(OC)c1` [AP14246, (1R)-1-(3-(carboxymethoxy)phenyl)-3-(morpholino)-1-propyl (2S)-1-((2S)-(3,4,5-trimethoxyphenyl)butyryl)-2-piperidine carboxylate], the IC50 at FKBP F36I was 32 nM; on FKBP F36M, 52 nM; on FKBP F36A, 77 nM; at FKBP F36V it was 16.5 nM; on FKBP F36L it was 68 nM. Also, the “wild-type, % @ 100000” value on wild-type human FKBP12 [2] is 75% @ 100000.

In the case of `CC[C@H](C(=O)N1CCCC[C@H]1C(=O)O[C@H](CCc1cccnc1)c1cccc(OCC(=O)O)c1)c1cc(OC)c(OC)c(OC)c1` [AP14252, hydrochloride], the concentration for half-maximal inhibition (IC50) on FKBP F36I was found to be 6.7 nM; on FKBP F36M, 54 nM; on FKBP F36A, 63 nM.

Regarding AP20187, the concentration giving a half-maximal response (EC50) (commonly the concentration giving half of the maximal effect) in test [3] was < 1 nM.

For the origin of these results see US8436183B2, “Synthetic multimerizing agents” (ARIAD Pharmaceuticals, Inc., priority 1994, dated 2013).
